Measurements published in US20090312624A1, “ELECTROPHY[…] FOR COGNITIVE MODULATORS” (priority 2008, published 2009).
Entries after “also recorded” stand apart in the source; their conditions may differ. Like-named read-outs stand apart in the source and are kept apart here.

Columns and labels:
prefrontal cortex = test: Evoked-response potential (ERP) recorded in the prefrontal cortex following electrical stimulation of the ventral subiculum of the hippocampus; type: in vivo, rat; conditions: for effect on the ERP recorded in the PFC (change from baseline): cognition-enhancing dose 0.5 mg/kg i.p., 0-30 min after administration, 0.5 mg/kg
Excerpt: Male Sprague-Dawley rats (250-350 g) were surgically implanted with 1-4 EEG recording electrodes into the prelimbic region of the PFC (coordinates: A +3.0±1.0 mm; L 0.8±0.3 mm; V −3.0) and a stimulation electrode into the subiculum/CA1 region of the hippocampus (coordinates: A −6.7; L 5.5; V −6.5). EEG signals were referenced to a ground electrode. Electrodes were held in place with acrylic cement and the animals were allowed to recover for 5-10 days prior to the measurements. Animals were provided with free access to food and water during testing.
Animals were tested during daylight hours in a Plexiglas testing chamber (32×32×40 cm) housed in a sound-attenuating chamber. Animals were first habituated to the testing chamber prior to experimentation. Field potentials/EEG signals were amplified and recorded digitally.
ERPs were constructed from peristimulus time histograms. Stimulation intensity that provides a distinct, though not large, ERP (filtered approx. 0.5-150 Hz) was first confirmed from greater than or equal to 50 stimulations that were provided at greater than or equal to 0.1 Hz. Stimulus current (0.1-3.0 mA) from a constant current source was adjusted to produce ERPs that were at least detectable from background electrical activity. Following this calibration of subiculum/CA1 stimulation intensity, ERPs were then collected from one or two 15-minute blocks comprised of a 10-min of hippocampal stimulation period ([…]) followed by 5-minutes of no stimulation. Following baseline recordings, vehicle or a putative cognitive enhancing compound (i.e., psychostimulant such as MPH or other drugs) were administered. ERPs were recorded in 15-min blocks described above for the next 60-90-minutes.
Changes in ERPs were calculated from trial-bin counts used to generate peristimulus time histograms (PSTHs). Data were collected from non-sleep EEG states only, as determined from field potential recordings or in combination with video or other activity measurements. Each PSTH was generated from randomly selected stimulus presentations. Data were expressed as a percentage of baseline ERP activity (pre-vehicle or pre-MPH) and percentage change from saline, which permits comparisons between subjects with different magnitude/shape ERPs.
Appropriate statistical comparisons, including mixed two-way ANOVA with both repeated (time)- and between (treatments)-measures, were used to determine statistical significance of candidate compound-induced changes in PFC. Analyses of ERPs as a function of dose and time and post-hoc comparisons were performed (i.e., Fisher LSD test).

PFC-dependent cognition = conditions: rats, cited from earlier work
[1] = tested on: catecholamine (norepinephrine and dopamine) neurotransmission; conditions: moderately higher doses that do not improve PFC-dependent cognition; cited from earlier work

COC(=O)C(c1ccccc1)C1CCCCN1 (stereo not shown) [MPH, methylphenidate]
components of the ERP versus pre-treatment recordings (baseline) (prefrontal cortex; 30-60 minute period following drug treatment): a number of components of the ERP were different | effect on the ERP recorded in the PFC (change from baseline) (prefrontal cortex): clearly visible and distinct change from baseline; also recorded: alter the magnitude of specific components of the ERP | effect on the ERP recorded in the PFC (change from baseline) (prefrontal cortex; listed as methylphenidate): significant effects | effect on the ERP recorded in the PFC (prefrontal cortex; higher doses that do not improve PFC-dependent cognition (2.0 mg/kg i.p.)): do not significantly affect this ERP; also recorded: not observed | effect on PFC-dependent cognition (PFC-dependent cognition; 0.5 mg/kg): exerting cognition-enhancing effects | effect on PFC-dependent cognition (PFC-dependent cognition; 2.0 mg/kg): cognition-impairing; also recorded: lacking cognition-enhancing actions | selective targeting of prefrontal cortical catecholamines [1]: not observed
